Measurements from US11524938B2, “Aromatic sulfonamide derivatives” (Bayer Pharma Aktiengesellschaft, priority 2016, dated 2022).

Target: T1, human P2X4 (Homo sapiens, UniProt Q99571)
T1 sequence (Q99571 1-388): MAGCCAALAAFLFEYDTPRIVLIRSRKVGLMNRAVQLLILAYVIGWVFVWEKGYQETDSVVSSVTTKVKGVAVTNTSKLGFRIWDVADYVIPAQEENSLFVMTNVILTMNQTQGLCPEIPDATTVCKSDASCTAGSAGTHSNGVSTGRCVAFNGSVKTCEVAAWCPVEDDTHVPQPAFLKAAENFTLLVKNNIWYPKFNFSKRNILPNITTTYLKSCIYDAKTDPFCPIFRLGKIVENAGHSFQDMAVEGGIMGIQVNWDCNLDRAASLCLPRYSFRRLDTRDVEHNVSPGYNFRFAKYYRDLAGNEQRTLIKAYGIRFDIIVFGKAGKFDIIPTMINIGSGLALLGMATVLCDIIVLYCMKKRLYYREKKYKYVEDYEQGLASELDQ
Test: Human P2X4 HEK Cell FLIPR Assay
Type: cell-based
Details: agonist Bz-ATP at EC80; for Emax: HEK293, HEK293 cells, percentage of maximal inhibition, read-out: Human P2X4 HEK Cells (FLIPR Assay) avg Efficacy [%]; for IC50: HEK293 cells, individual values listed where some fall outside detection range
Method: HEK293 cells stably expressing human P2X4 were plated in poly-D-lysine-coated 384-well plates at a seeding density of 30000 cells/well and incubated overnight. P2X4 function was assessed by measuring intracellular calcium changes using the calcium-chelating dye Fluo8-AM (Molecular Devices) on a fluorescent imaging plate reader (FLEX/FLIPR station; Molecular Devices). On the day of the assay, the medium was removed and the cells were incubated for 30 min at 37° C. and 5% CO2 in 30 μL of dye buffer (Hank's balanced salt solution, 10 mM HEPES, 1.8 mM CaCl2, 1 mM MgCl2, 2 mM probenecid, 5 mM D-glucose monohydrate, 5 μM Fluo8-AM, pH=7.4). Compounds diluted in probenecid buffer (Hank's balanced salt solution, 10 mM HEPES, 1.8 mM CaCl2, 1 mM MgCl2, 2 mM probenecid, 5 mM D-glucose monohydrate, pH=7.4) were added in a volume of 10 μL and allowed to incubate for 30 min at room temperature. The final assay DMSO concentration was 0.5%. The agonist, Bz-ATP (Tocris), was added in a volume of 10 μL at a concentration representing the EC80 value. The EC80 value of Bz-ATP was determined each assay day prior to compound profiling. The fluorescence was measured for an interval of 120 sec at 2 sec intervals. The excitation and emission wavelengths used to monitor fluorescence were 470-495 nm and 515-575 nm, respectively. The data was analyzed based on the increase in peak relative fluorescence units (RFU) compared to the basal fluorescence and the data was normalized to the agonist control. The compounds were tested in triplicates per plate and mean values were plotted in Excel XLFit to determine IC50 values, percentage of maximal inhibition and the Hill coefficients.

NS(=O)(=O)c1cc(NC(=O)Cc2ccccc2Cl)ccc1-n1cnc2ncccc21 [Example 44, 2-(2-Chlorophenyl)-N-[4-(1H-imidazo[4,5-b]pyridin-1-yl)-3-sulfamoylphenyl]-acetamide]
Emax: 97%
IC50: 378 nM

NS(=O)(=O)c1cc(NC(=O)Cc2ccccc2Cl)ccc1-n1cnc2cnccc21 [Example 45, 2-(2-Chlorophenyl)-N-[4-(1H-imidazo[4,5-c]pyridin-1-yl)-3-sulfamoylphenyl]-acetamide]
Emax: 74%
IC50: 75 nM

NS(=O)(=O)c1cc(NC(=O)Cc2ccccc2Cl)ccc1-n1cnc2ccncc21 [Example 46, 2-(2-Chlorophenyl)-N-[4-(3H-imidazo[4,5-c]pyridin-3-yl)-3-sulfamoylphenyl]-acetamide]
Emax: 87%
IC50: 916 nM

Cc1cn(-c2ccc(NC(=O)Cc3ccccc3Cl)cc2S(N)(=O)=O)c(C)n1 [Example 47, 2-(2-Chlorophenyl)-N-[4-(2,4-dimethyl-1H-imidazol-1-yl)-3-sulfamoylphenyl]-acetamide]
Emax: 66%
IC50: 472 nM

NS(=O)(=O)c1cc(NC(=O)Cc2ccccc2F)ccc1-n1cc(F)cn1 [Example 48, 2-(2-Fluorophenyl)-N-[4-(4-fluoro-1H-pyrazol-1-yl)-3-sulfamoylphenyl]acetamide]
Emax: 82%
IC50: 297 nM

NS(=O)(=O)c1cc(NC(=O)Cc2ccccc2C(F)F)ccc1-n1cc(Cl)cn1 [Example 49, N-[4-(4-Chloro-1H-pyrazol-1-yl)-3-sulfamoylphenyl]-2-[2-(difluoromethyl)-phenyl]acetamide]
Emax: 94%
IC50: 135 nM

NS(=O)(=O)c1cc(NC(=O)Cc2ccccc2F)ccc1-n1cc(Cl)cn1 [Example 50, N-[4-(4-Chloro-1H-pyrazol-1-yl)-3-sulfamoylphenyl]-2-(2-fluorophenyl)acetamide]
Emax: 88%
IC50: 149 nM

NS(=O)(=O)c1cc(NC(=O)Cc2ccccc2C(F)F)ccc1-n1cc(F)cn1 [Example 51, 2-[2-(Difluoromethyl)phenyl]-N-[4-(4-fluoro-1H-pyrazol-1-yl)-3-sulfamoyl-phenyl]acetamide]
Emax: 94%
IC50: 134 nM

N#Cc1cnn(-c2ccc(NC(=O)Cc3ccccc3F)cc2S(N)(=O)=O)c1 [Example 52, N-[4-(4-Cyano-1H-pyrazol-1-yl)-3-sulfamoylphenyl]-2-(2-fluorophenyl)acetamide]
Emax: 82%
IC50: 154 nM

COc1ccccc1CC(=O)Nc1ccc(-n2cnc(C(F)(F)F)n2)c(S(N)(=O)=O)c1 [Example 53, 2-(2-Methoxyphenyl)-N-{3-sulfamoyl-4-[3-(trifluoromethyl)-1H-1,2,4-triazol-1-yl]-phenyl}acetamide]
Emax: 52%
IC50: 169 nM

NS(=O)(=O)c1cc(NC(=O)Cc2ccccc2F)ccc1-n1cnc(C(F)(F)F)n1 [Example 54, 2-(2-Fluorophenyl)-N-{3-sulfamoyl-4-[3-(trifluoromethyl)-1H-1,2,4-triazol-1-yl]phenyl}acetamide]
Emax: 75%
IC50: 557 nM

NS(=O)(=O)c1cc(NC(=O)Cc2cccc(F)c2)ccc1-n1cnc(C(F)(F)F)n1 [Example 55, 2-(3-Fluorophenyl)-N-{3-sulfamoyl-4-[3-(trifluoromethyl)-1H-1,2,4-triazol-1-yl]-phenyl}acetamide]
Emax: 74%
IC50: 1400 nM

NS(=O)(=O)c1cc(NC(=O)Cc2ccc(F)cc2Cl)ccc1-n1cnc(C(F)(F)F)n1 [Example 56, 2-(2-Chloro-4-fluorophenyl)-N-{3-sulfamoyl-4-[3-(trifluoromethyl)-1H-1,2,4-triazol-1-yl]phenyl}acetamide]
Emax: 70%
IC50: 121 nM

NS(=O)(=O)c1cc(NC(=O)Cc2ccccc2OC(F)F)ccc1-n1cnc(C(F)(F)F)n1 [Example 57, 2-[2-(Difluoromethoxy)phenyl]-N-{3-sulfamoyl-4-[3-(trifluoromethyl)-1H-1,2,4-triazol-1-yl]phenyl}acetamide]
Emax: 71%
IC50: 141 nM

NS(=O)(=O)c1cc(NC(=O)Cc2cc(F)ccc2Cl)ccc1-n1cnc(C(F)(F)F)n1 [Example 58, 2-(2-Chloro-5-fluorophenyl)-N-{3-sulfamoyl-4-[3-(trifluoromethyl)-1H-1,2,4-triazol-1-yl]phenyl}acetamide]
Emax: 54%
IC50: 73 nM

NS(=O)(=O)c1cc(NC(=O)Cc2ccncc2Cl)ccc1-n1cnc(C(F)(F)F)n1 [Example 59, 2-(3-Chloropyridin-4-yl)-N-{3-sulfamoyl-4-[3-(trifluoromethyl)-1H-1,2,4-triazol-1-yl]phenyl}acetamide]
Emax: 73%
IC50: 4650 nM

NS(=O)(=O)c1cc(NC(=O)Cc2ccc(C(F)F)cc2)ccc1-n1cnc(C(F)(F)F)n1 [Example 60, 2-[4-(Difluoromethyl)phenyl]-N-{3-sulfamoyl-4-[3-(trifluoromethyl)-1H-1,2,4-triazol-1-yl]phenyl}acetamide]
Emax: 80%
IC50: 917 nM

NS(=O)(=O)c1cc(NC(=O)C(F)(F)c2ccccc2Cl)ccc1-n1cnc(C(F)(F)F)n1 [Example 61, 2-(2-Chlorophenyl)-2,2-difluoro-N-{3-sulfamoyl-4-[3-(trifluoromethyl)-1H-1,2,4-triazol-1-yl]phenyl}acetamide]
Emax: 79%
IC50: 400 nM

NS(=O)(=O)c1cc(NC(=O)C(F)(F)c2ccccc2Cl)ccc1-n1cc(Br)cn1 [Example 62, N-[4-(4-Bromo-1H-pyrazol-1-yl)-3-sulfamoylphenyl]-2-(2-chlorophenyl)-2,2-difluoroacetamide]
Emax: 94%
IC50: 249 nM

NS(=O)(=O)c1cc(NC(=O)Cc2ccccc2F)ccc1-n1cc(Br)cn1 [Example 63, N-[4-(4-Bromo-1H-pyrazol-1-yl)-3-sulfamoylphenyl]-2-(2-fluorophenyl)acetamide]
Emax: 87%
IC50: 130 nM

NS(=O)(=O)c1cc(NC(=O)Cc2ccccc2C(F)(F)F)ccc1-n1cc(Br)cn1 [Example 64, N-[4-(4-Bromo-1H-pyrazol-1-yl)-3-sulfamoylphenyl]-2-[2-(trifluoromethyl)-phenyl]acetamide]
Emax: 83%
IC50: 104 nM

NS(=O)(=O)c1cc(NC(=O)Cc2cccc(F)c2)ccc1-n1cc(Br)cn1 [Example 65, N-[4-(4-Bromo-1H-pyrazol-1-yl)-3-sulfamoylphenyl]-2-(3-fluorophenyl)acetamide]
Emax: 62%
IC50: 355 nM

Cc1ccccc1CC(=O)Nc1ccc(-n2cc(Br)cn2)c(S(N)(=O)=O)c1 [Example 66, N-[4-(4-Bromo-1H-pyrazol-1-yl)-3-sulfamoylphenyl]-2-(2-methylphenyl)acetamide]
Emax: 90%
IC50: 86 nM

NS(=O)(=O)c1cc(NC(=O)Cc2cccnc2Cl)ccc1-n1cc(Br)cn1 [Example 67, N-[4-(4-Bromo-1H-pyrazol-1-yl)-3-sulfamoylphenyl]-2-(2-chloropyridin-3-yl)-acetamide]
Emax: 98%
IC50: 1510 nM

NS(=O)(=O)c1cc(NC(=O)Cc2ccc(F)cc2Cl)ccc1-n1cc(Br)cn1 [Example 68, N-[4-(4-Bromo-1H-pyrazol-1-yl)-3-sulfamoylphenyl]-2-(2-chloro-4-fluorophenyl)-acetamide]
Emax: 75%
IC50: 128 nM

NS(=O)(=O)c1cc(NC(=O)Cc2ccccc2OC(F)F)ccc1-n1cc(Br)cn1 [Example 69, N-[4-(4-Bromo-1H-pyrazol-1-yl)-3-sulfamoylphenyl]-2-[2-(difluoromethoxy)-phenyl]acetamide]
Emax: 80%
IC50: 210 nM

NS(=O)(=O)c1cc(NC(=O)Cc2ccccc2OC(F)(F)F)ccc1-n1cc(Br)cn1 [Example 70, N-[4-(4-Bromo-1H-pyrazol-1-yl)-3-sulfamoylphenyl]-2-[2-(trifluoromethoxy)-phenyl]acetamide]
Emax: 85%
IC50: 118 nM

NS(=O)(=O)c1cc(NC(=O)Cc2cc(F)c(F)cc2Cl)ccc1-n1cc(Br)cn1 [Example 71, N-[4-(4-Bromo-1H-pyrazol-1-yl)-3-sulfamoylphenyl]-2-(2-chloro-4,5-difluorophenyl)-acetamide]
Emax: 80%
IC50: 132 nM

NS(=O)(=O)c1cc(NC(=O)Cc2ccncc2Cl)ccc1-n1cc(Br)cn1 [Example 72, N-[4-(4-Bromo-1H-pyrazol-1-yl)-3-sulfamoylphenyl]-2-(3-chloropyridin-4-yl)acetamide]
Emax: 96%
IC50: 576 nM
